This is an account of results in PubChem BioAssay (NCI).

The structures appear in SMILES notation.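 48-hour exposure; five concentrations; linearly interpolated endpoints. GI50: concentration for 50% inhibition of growth. At the TGI there is no net growth.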 A value given as a limit tells only on which side of the number the result lay.

Test systems include EKVX NSCLC; HCC-2998 colon; HOP-92 NSCLC; KM12 colon; MOLT-4 leukemia; NCI-H226 lung; RPMI-8226 leukemia; SF-268 CNS; SK-OV-3 ovarian; SW-620 colon.
Holding throughout (assay): growth of human tumour cells (NCI), 48 h

As to `Cn1nccc1Nc1nccc(-c2ccn([C@H](CO)c3ccc(Cl)c(F)c3)c(=O)c2)n1`, the GI50 is 22.8 µM in the experiment on EKVX NSCLC; 0.588 µM with HCC-2998 colon; 1.36 µM in the experiment with HOP-92 NSCLC; 18.8 µM in the experiment on KM12 colon; 24.4 µM with MOLT-4 leukemia; 34.8 µM in the experiment on NCI-H226 lung. For the same compound, the GI50 was 21.6 µM in the experiment on RPMI-8226 leukemia, 38.1 µM in the experiment with SF-268 CNS, 47.6 µM in the experiment with SK-OV-3 ovarian and 5.02 µM in the experiment on SW-620 colon. Besides, the TGI with EKVX NSCLC was above 100 µM; with HCC-2998 colon it was 23.7 µM; in the experiment on HOP-92 NSCLC, 40 µM; in the experiment on KM12 colon it was above 100 µM; in the experiment with MOLT-4 leukemia, above 92.2 µM; in the experiment on NCI-H226 lung it was above 100 µM. The TGI in the experiment on RPMI-8226 leukemia is 59.3 µM; with SF-268 CNS it was above 100 µM; in the experiment with SK-OV-3 ovarian, above 100 µM; in the experiment with SW-620 colon, 30.4 µM.
For `O=C1NC(=O)c2c1n(Cc1ccccc1)c(=O)n2Cc1ccccc1`, the TGI in the experiment with EKVX NSCLC, in the experiment on HCC-2998 colon, with HOP-92 NSCLC, in the experiment with KM12 colon, in the experiment with MOLT-4 leukemia and with NCI-H226 lung was above 100 µM in each case. The TGI in the experiment with RPMI-8226 leukemia, in the experiment on SF-268 CNS, in the experiment with SK-OV-3 ovarian and in the experiment with SW-620 colon was above 100 µM in each case.
`CSC1=Nc2c(c(C)c(C)n2COC(CO)CO)C2=NC(=O)CN12`: the GI50 in the experiment on EKVX NSCLC, with HCC-2998 colon, with HOP-92 NSCLC, with KM12 colon, with MOLT-4 leukemia and in the experiment with NCI-H226 lung was above 100 µM throughout. The GI50 in the experiment with RPMI-8226 leukemia, in the experiment on SF-268 CNS, in the experiment with SK-OV-3 ovarian and with SW-620 colon was above 100 µM each time. Further, the TGI in the experiment on EKVX NSCLC, with HCC-2998 colon, with HOP-92 NSCLC, in the experiment with KM12 colon, in the experiment on MOLT-4 leukemia and in the experiment on NCI-H226 lung was above 100 µM in each case. Besides, the TGI in the experiment with RPMI-8226 leukemia, in the experiment on SF-268 CNS, in the experiment with SK-OV-3 ovarian and with SW-620 colon was above 100 µM in each case.
For the compound `COC(=O)C1C(=O)O[C@@H](c2ccc3c(c2)OCO3)C1C(=O)OC` (mixture of isomers), the TGI in the experiment on EKVX NSCLC, in the experiment with HCC-2998 colon, with HOP-92 NSCLC, in the experiment on KM12 colon, in the experiment on MOLT-4 leukemia and in the experiment on NCI-H226 lung was above 100 µM throughout. Also, the TGI with RPMI-8226 leukemia, in the experiment on SF-268 CNS, in the experiment on SK-OV-3 ovarian and in the experiment on SW-620 colon was above 100 µM in each case.
On to `O=C(OCc1ccc2c(Br)cc(Br)c(O)c2n1)c1cc2ccccc2[nH]1`, for which the GI50 in the experiment with EKVX NSCLC was 1.46 µM; with HCC-2998 colon, 1.57 µM; in the experiment on HOP-92 NSCLC, 0.548 µM; in the experiment with KM12 colon, 1.52 µM; in the experiment on MOLT-4 leukemia it was 0.488 µM; in the experiment with NCI-H226 lung, 1.42 µM. For the same compound, the GI50 with RPMI-8226 leukemia is 0.357 µM; in the experiment on SF-268 CNS, 1.44 µM; in the experiment with SK-OV-3 ovarian, 6.03 µM; in the experiment on SW-620 colon, 0.333 µM. Moreover, the TGI turned out to be 3 µM with EKVX NSCLC; 3.1 µM in the experiment with HCC-2998 colon; 2.15 µM in the experiment on HOP-92 NSCLC; 3.09 µM in the experiment on KM12 colon; 2.49 µM in the experiment with MOLT-4 leukemia; 3.11 µM with NCI-H226 lung. Further, the TGI was 1.94 µM with RPMI-8226 leukemia, 2.91 µM with SF-268 CNS, 18.6 µM with SK-OV-3 ovarian and 1.13 µM in the experiment with SW-620 colon.
As to `Cc1ccc2c(-c3ccnc(Nc4ccc5c(c4)OCCO5)n3)c(-c3ccc(C(F)(F)F)cc3)nn2n1`, the GI50 is 4.72 µM with EKVX NSCLC; 12.3 µM in the experiment on HCC-2998 colon; 1.4 µM with HOP-92 NSCLC; 14.1 µM with KM12 colon; 6.89 µM with MOLT-4 leukemia; 11.5 µM with NCI-H226 lung. Also, the GI50 with RPMI-8226 leukemia was 2.13 µM; in the experiment on SF-268 CNS, above 25 µM; in the experiment on SK-OV-3 ovarian, 3.8 µM; in the experiment on SW-620 colon, above 25 µM. For the same compound, the TGI in the experiment on EKVX NSCLC is above 25 µM; with HCC-2998 colon it was above 25 µM; in the experiment on HOP-92 NSCLC, 19.2 µM; with KM12 colon, above 25 µM; with MOLT-4 leukemia it was above 25 µM; in the experiment with NCI-H226 lung, above 25 µM. Besides, the TGI with RPMI-8226 leukemia was 13.5 µM; in the experiment with SF-268 CNS, above 25 µM; in the experiment with SK-OV-3 ovarian, above 25 µM; in the experiment on SW-620 colon, above 25 µM.
For the compound `CCNc1nc(O)c(/C=C2\C=Nc3ncccc32)s1`, the GI50 with EKVX NSCLC is 16.6 µM; in the experiment on HCC-2998 colon it was 4.92 µM; in the experiment with HOP-92 NSCLC, 1.08 µM; with KM12 colon, 3.05 µM; with MOLT-4 leukemia, 3.21 µM; in the experiment with NCI-H226 lung it was 2.83 µM. In addition, the GI50 in the experiment on RPMI-8226 leukemia was 11.7 µM; in the experiment on SF-268 CNS, 2.3 µM; with SK-OV-3 ovarian it was 2.86 µM; in the experiment with SW-620 colon, 3.42 µM. Also, the TGI in the experiment on EKVX NSCLC is above 100 µM; in the experiment with HCC-2998 colon, 36.7 µM; with HOP-92 NSCLC it was above 100 µM; in the experiment with KM12 colon, 12.4 µM; in the experiment with MOLT-4 leukemia, 12.6 µM; with NCI-H226 lung, 28.7 µM. Besides, the TGI stood at 68 µM in the experiment on RPMI-8226 leukemia, 7.85 µM with SF-268 CNS, 9.12 µM in the experiment on SK-OV-3 ovarian and 27.1 µM with SW-620 colon.
Turning to `CCN1C(=S)N(CC)C2C1NC(=S)N2/N=C/C=C/c1ccccc1OC` (stereo not given), the GI50 in the experiment on EKVX NSCLC is 0.4 µM; with HCC-2998 colon it was 0.392 µM; in the experiment with HOP-92 NSCLC it was 3.56 µM; in the experiment on KM12 colon, 0.27 µM; in the experiment with MOLT-4 leukemia, 0.464 µM; in the experiment on NCI-H226 lung, 0.903 µM. Besides, the GI50 is 0.377 µM with RPMI-8226 leukemia, 0.913 µM in the experiment on SF-268 CNS, 0.505 µM in the experiment with SK-OV-3 ovarian and 0.338 µM in the experiment on SW-620 colon. The TGI in the experiment on EKVX NSCLC was above 100 µM; in the experiment on HCC-2998 colon, 25.3 µM; in the experiment on HOP-92 NSCLC it was above 76.7 µM; in the experiment on KM12 colon, 15.8 µM; in the experiment with MOLT-4 leukemia, above 54.7 µM; with NCI-H226 lung, above 39.3 µM. In addition, the TGI with RPMI-8226 leukemia was 7.08 µM; in the experiment with SF-268 CNS it was 44.8 µM; in the experiment on SK-OV-3 ovarian it was above 100 µM; in the experiment on SW-620 colon, above 100 µM.
